Experimental data as given in patent US20240174596A1 (Northwestern University, priority 2021, published 2024).
Where a name gives a salt, the structure may show the parent alone.

Legend:
[1] = target: T1, hOAT (Homo sapiens, UniProt P04181); assay: Partition ratio experiment (titration of hOAT); assay type: biochemical
T1 construct: made in house; host or cells: E. coli BL21(DE3)
T1 sequence (P04181 26-439): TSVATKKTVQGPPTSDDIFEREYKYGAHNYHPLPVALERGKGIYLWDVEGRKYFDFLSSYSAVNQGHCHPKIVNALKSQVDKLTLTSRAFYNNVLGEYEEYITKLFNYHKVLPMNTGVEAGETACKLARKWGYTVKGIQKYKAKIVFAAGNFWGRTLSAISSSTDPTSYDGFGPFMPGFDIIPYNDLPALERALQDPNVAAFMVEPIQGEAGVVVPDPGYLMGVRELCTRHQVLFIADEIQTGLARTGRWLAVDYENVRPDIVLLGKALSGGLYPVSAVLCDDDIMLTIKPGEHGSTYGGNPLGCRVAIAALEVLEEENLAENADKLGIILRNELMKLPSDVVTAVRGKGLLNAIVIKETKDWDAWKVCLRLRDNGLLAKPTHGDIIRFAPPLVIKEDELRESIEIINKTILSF
Protocol: FIG. 9. Titration of hOAT with SS-1-148. The loss of enzyme activity was measured as a function of the ratio of […] to enzyme concentration. Linear regression was used on the linear portion of the curves to obtain the X-intercept, which was the turnover number (partition ratio=turnover number−1).
The partition ratio was calculated using previous protocols.^8-10

[2] = target: T1, hOAT; assay: Time-dependent dialysis of inhibited hOAT; assay type: biochemical; settings: up to 48 h against buffer with excessive PLP and α-KG
Protocol: Plausible Inactivation Mechanisms of SS-1-148 with hOAT. The irreversibility of the inhibition of hOAT by SS-1-148 was evaluated by a time-dependent dialysis experiment up to 48 h against a buffer consisting of excessive PLP and α-KG (FIG. 10). […] To reveal the structure of the final product in the inactivation reaction, we co-crystallized hOAT with an excessive amount of SS-1-148. […] It also contains three copies of the protein monomer in one asymmetric unit. Similar to the soaking crystal structure shown in FIG. 4A, PLP is covalently linked to SS-1-148 moiety in the cocrystal structure. However, no covalent bond is noticed between Lys292 and the final product. Moreover, in the published crystal structure of the native enzyme (holo-hOAT), Arg413 typically forms a salt bridge with Glu235, which is found intact for several cocrystals of hOAT with different inactivators.^14, 23, 26 In the hOAT/SS-1-148 soaking result (FIG. 4A), the salt bridge of Arg413-Glu235 is broken due to the existence of an alternative salt bridge between the carboxylate of one intermediate and Arg413. […] Instead, Arg413, Gln266, and the final product are hydrogen-bonded to the same water molecule.
The dialysis experiment was conducted using previous protocols.^8-10

[3] = target: Ala-AT (Sus scrofa, UniProt P13191); assay: Inhibition of Ala-AT; assay type: biochemical, porcine; settings: up to 10 mM
Ala-AT, sequence (P13191 whole entry): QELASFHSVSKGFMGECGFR
Protocol: All reagents for enzyme purification and assays were purchased from Sigma-Aldrich (St. Louis, MO, USA). […] All the enzyme assays for the inactivation, partition ratio, and dialysis experiment were recorded on a Synergy H1 hybrid multimode microplate reader (Biotek, USA) with transparent 96-well plates.
potassium phosphate at pH 7.4, 5.55 mM α-ketoglutarate, 1.11 mM NADH, 5.55 mM […], 5.55 units of malic dehydrogenase, and various concentrations of SS-1-148. […] The plate was shaken at room temperature for 1 min, and the absorbance was measured at 340 nm every 10 s for 90 min based on the conversion of NADH to NAD^+. The remaining Asp-AT activity percentage was calculated according to the corresponding concentrations. […]

[4] = Liver microsomal stability, human; assay type: in vitro ADME
[5] = target: CYP 2C9 (Homo sapiens, UniProt P11712); assay: CYP inhibition 2C9; assay type: in vitro ADME
CYP 2C9, sequence (P11712 whole entry): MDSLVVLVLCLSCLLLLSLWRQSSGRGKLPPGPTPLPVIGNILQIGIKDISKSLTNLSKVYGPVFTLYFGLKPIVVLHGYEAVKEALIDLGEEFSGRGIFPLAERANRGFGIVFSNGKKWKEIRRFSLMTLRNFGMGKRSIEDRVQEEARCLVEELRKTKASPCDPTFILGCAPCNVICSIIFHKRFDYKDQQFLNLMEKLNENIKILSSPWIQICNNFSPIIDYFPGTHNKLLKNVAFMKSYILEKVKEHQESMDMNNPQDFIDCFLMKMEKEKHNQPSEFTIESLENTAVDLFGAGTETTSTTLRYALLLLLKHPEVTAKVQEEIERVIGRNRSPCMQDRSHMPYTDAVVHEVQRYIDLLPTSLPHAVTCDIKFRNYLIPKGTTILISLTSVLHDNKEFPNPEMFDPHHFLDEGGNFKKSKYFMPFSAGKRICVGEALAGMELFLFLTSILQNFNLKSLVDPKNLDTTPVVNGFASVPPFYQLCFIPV

With `N[C@H]1C=C(C(=O)O)CC1(F)F` [SS-1-148, (S)-3-Amino-4,4-difluorocyclopent-1-enecarboxylic acid hydrochloric acid salt] the “equivalents turned over per active site for each equivalent leading to inactivation” value [1] was 34.9 equivalents, the “remaining activity of hOAT after dialysis” value [2] was “unchanged” and the “inhibition on Ala-AT” value [3] was “did not show noticeable inhibition”. For the same molecule, the “Liver microsomal stability (t1/2) Human” value [4] was “N/C” and the IC50 [5] was > 100 µM.
